# Measured values reported in paper PMC11539218 (Antimicrobial Agents and Chemotherapy, 2024).
# Experiments:
# [1] = tested on: L. (L.) infantum promastigotes; assay: Ultrastructural studies (transmission electron microscopy); assay type: cell-based, Leishmania (L.) infantum; details: 169.2 µM, TEM
# Protocol: Promastigotes (3 × 10^7 parasites/well) were treated with compound 1 (169.2 µM) for 2, 4, and 6 h at 24°C. Subsequently, parasites were fixed in glutaraldehyde solution (2.5% wt/vol) and post-fixed in osmium tetroxide (1% wt/vol). The samples were gradually dehydrated in acetone and embedded in Epon 812 resin. Ultrathin sections were stained with uranyl acetate and lead citrate ([27]). The material was analyzed under a transmission electron microscope (JEOL JEM-1011). Untreated parasites were employed as a negative control.
# [2] = tested on: Peritoneal macrophages infected with L. (L.) infantum; assay: Cytokines in infected macrophages (ELISA); assay type: cell-based, BALB/c mice; details: 48 and 72 h
# Protocol: L. (L.) infantum (MHOM/BR/1972/LD) promastigotes were maintained in M199 medium supplemented with 10% FBS and 0.25% hemin, pH 7.2 at 24°C. Amastigotes were isolated from golden hamsters (M. auratus) by differential centrifugation of infected spleens and the parasite’s number was determined according to Stauber ([14]). Peritoneal macrophages were obtained from the peritoneal cavity of BALB/c mice and maintained in RPMI-1640 medium supplemented with 10% FBS, pH 7.2 at 37°C.
# Peritoneal macrophages (1 × 10^6/well) were infected with L. (L.) infantum […] (10:1 amastigotes/macrophage) for 24 h, at 37°C with 5% CO2. Subsequently, compound 1 (10 and 60 µM) was added and the incubation followed the same conditions described above. Cell supernatants were collected after 48 and 72 h and the cytokines (IL-4, IL-10, IL-12, and INF-γ) were measured using the BD OptEIA Mouse ELISA set kits, according to the manufacturer’s instructions. Concanavalin A (5 µg/mL) was employed as positive control and untreated cells as negative control.
# [3] = tested on: L. (L.) infantum promastigotes; assay: Mitochondrial membrane electric potential (JC-1, flow cytometry); assay type: cell-based, Leishmania (L.) infantum; details: compound 1 169.2 µM, CCCP 10 µM; 2 and 4 h; JC-1 BL-2/BL-1 ratio; vs untreated
# Protocol: Promastigotes (2 × 10^6/well) were treated with compound 1 (169.2 µM) for 2 and 4 h, at 24°C. Then, JC-1 (10 µM) was added and the parasites were incubated for 20 min. Fluorescence was measured in a flow cytometer with an excitation wavelength of 488 nm and emission of 530 (BL-1) and 574 nm (BL-2). Mitochondrial membrane potential was established through the ratio of BL-2/BL-1 channels ([19]). Carbonyl cyanide m-chlorophenylhydrazone (CCCP) (10 µM) was employed as positive control and untreated parasites as negative control.
# [4] = tested on: L. (L.) infantum promastigotes; assay: Plasma membrane permeability (Sytox Green); assay type: cell-based, Leishmania (L.) infantum; details: compound 1 169.2 µM, Triton X-100 0.5%, up to 4 h
# Protocol: Promastigotes (2 × 10^6/well) were pretreated with Sytox Green (1 µM) for 15 min, at 24°C. Then, compound 1 (169.2 µM) was added and the fluorescence was monitored every 20 min up to 4 h in a spectrofluorometer, with excitation and emission wavelengths of 485 and 535 nm, respectively ([17]). Triton X-100 (0.5% vol/vol) was employed as positive control and untreated parasites as negative control ([18]).
# [5] = tested on: L. (L.) infantum promastigotes; assay: Adenosine triphosphate levels (luciferase bioluminescence); assay type: cell-based, Leishmania (L.) infantum; details: 169.2 µM; 2 and 4 h; vs untreated parasites
# Protocol: Promastigotes (2 × 10^6/well) were treated with compound 1 (169.2 µM) for 2 and 4 h, at 24°C. Subsequently, the parasites were lysed with Triton X-100 (0.5%) and mixed with ATP Determination Kit standard reaction buffer (1 mM DTT, 0.5 mM luciferin, and 1.25 µg/mL luciferase), according to the manufacturer’s instructions. […] CCCP (10 µM) was employed as positive control and untreated parasites as negative control.
# [6] = tested on: amastigotes of L. (L.) infantum; details: cited from earlier work
# [7] = tested on: L. (L.) infantum promastigotes; assay: Acidocalcisomes alkalinization (acridine orange); assay type: cell-based, Leishmania (L.) infantum; details: compound 1 169.2 µM, nigericin 4 µM; after 20 min; vs untreated
# Protocol: Promastigotes (2 × 10^6/well) were pretreated with acridine orange (4 µM) in PBS, for 5 min at 24°C. The parasites were treated with compound 1 (169.2 µM). Fluorescence was monitored every 20 min up to 4 h in a spectrofluorometer, with excitation and emission wavelengths of 485 and 535 nm, respectively ([22]). Nigericin (4 µM) was employed as positive control and untreated parasites as negative control ([23]).
# [8] = tested on: Erythrocytes collected from BALB/c mice; assay: Hemolytic activity; assay type: cell-based; details: 6.25 to 200 µM, 2 h
# Protocol: Erythrocytes collected from BALB/c mice were added to a U-shaped bottom 96-wells microplate at 3% (vol/vol) in phosphate-buffered saline (PBS), treated with compound 1 serially diluted ([…] to 200 µM) in PBS and incubated for 2 h at 24°C. To determine the hemolytic activity, cell supernatants were collected and analyzed in a spectrophotometer (570 nm) ([15]). Bidistilled water was employed as a positive control and untreated erythrocytes as a negative control.
# [9] = tested on: L. (L.) infantum promastigotes; assay: DNA content / integrity (agarose gel electrophoresis); assay type: cell-based, Leishmania (L.) infantum; details: compound 1 169.2 µM, H2O2 10 mM; 24 h; 2% agarose gel
# Protocol: Promastigotes (1 × 10^7/well) were treated with compound 1 (169.2 μM) in M199 medium supplemented with 10% FBS and 0.25% hemin, pH 7.2, for 24 h at 24°C. Then, the genetic material was extracted using the QIAamp DNA Mini Kit, according to the manufacturer’s instructions. Total DNA quantification was performed in a NanoDrop ND-1000 spectrophotometer (260/280 nm). The purified genetic material (300 ng) was analyzed by electrophoresis for 1 h at […] in a 2% agarose gel with ethidium bromide (0.5 µg/mL). Visualization was performed under UV light in a MiniBIS Pro transilluminator (DNR Bio Imaging System) ([21]). H2O2 (10 mM) was employed as positive control and untreated parasites as negative control ([26]).
smiles,measurement,setting,value
"C=CCc1cc(OC)c(OCc2ccc(OC)cc2)c(Oc2ccc(CN3CCOCC3)cc2OC)c1 [compound 1, 4-(4-(5-allyl-3-methoxy-2-((4-methoxybenzyl)oxy)phenoxy)-3-methoxybenzyl)morpholine]",ultrastructural alterations,[1]; 2 h,increased volume of the mitochondria
same,ultrastructural alterations,"[1]; all studied times (2, 4, 6 h)",autophagic vacuoles were observed in the cytoplasm
same,ultrastructural alterations,"[1]; later times of incubation (4 h, 6 h)",losses of mitochondrial cristae
same,IL-10 levels,"[2]; 10 and 60 µM, vs untreated control",reduction
same,IL-4 levels,[2]; only at 60 µM,significantly reduced levels
same,IL-12 levels,[2]; only at 60 µM,significantly reduced levels
same,INF-γ levels,[2]; only at 60 µM,significantly reduced levels
same,mitochondrial membrane electric potential (ΔΨm),[3],significant depolarization
same,plasma membrane permeability,[4],no alteration
same,ATP concentration,[5],significant reduction
same,IC50,"[6]; intracellular amastigotes, 24 h incubation, read-out: IC50 against amastigotes of L. (L.) infantum",9.7 µM
same,SI,[6]; selectivity index,> 20
same,acridine orange fluorescence levels (acidocalcisomes),[7],significantly higher
same,hemolysis,[8],no hemolysis
same,integrity of the genetic content (DNA),[9],no alterations
